Measured values reported in patent US9630941B2 (priority 2008, dated 2017).

Legend:
[1] = Thermal stability, 120° C. for 10 min; format: physicochemical
Procedure: C. Thermal Stability—120° C. for 10 min.

[2] = Control (IPBS) stability for the buccal homogenate study; format: physicochemical
Procedure: (§1) b. Porcine Buccal Tissue Homogenate Stability
(§2) Protein Concentration 2 mg/ml

[3] = Bioreversion: plasma stability, porcine plasma; format: in vitro ADME
[4] = Porcine buccal tissue homogenate stability; format: in vitro ADME; settings: protein concentration 2 mg/ml
Procedure: as §1, §2

[5] = Bioreversion: plasma stability, rabbit plasma; format: in vitro ADME
[6] = Chemical stability pH dependent at 25° C.; format: physicochemical
Procedure: B. Chemical Stability pH Dependent at 25° C.

[7] = Aqueous solubility, pH dependent; format: physicochemical

For `CCCCCc1cc(OC(=O)C(N)C(C)C)c2c(c1)OC(C)(C)C1CCC(C)=CC21` (centres unmarked) [THC-Valinate (6), Δ^9-THC-valinate], the “Drug loading (%)” value [1] was 104.67 ± 2.22%, the “CBN content of the sample after heating” value ([1]; 120° C. for 10 min) was 8.79 ± 2.43 µg and the “Drug remaining” value ([1]; 120° C. for 10 min) was 1440.57 ± 46.34 µg. For the same compound, the “THC content of the sample after heating” value ([1]; 120° C. for 10 min) was 74.35 ± 5.26 µg, the “Drug remaining (%)” value ([1]; 120° C. for 10 min, % of initial) was “(91.80 ± 4.90) %” and the “CBN content of the sample, initial” value ([1]; before heating) was 8.27 ± 1.68 µg. For the same compound, the “Initial, μg (drug itself)” value ([1]; before heating) was 1570.09 ± 33.27 µg, the “THC content of the sample, initial” value ([1]; before heating) was 61.91 ± 9.49 µg and the K [2] was 3.66 ± 0.68 ×10^−3 min^−1. The K [3] was 91.16 ± 10.91 ×10^−2 min^−1, the T1/2 [3] was 0.766 ± 0.092 min and the K [4] was 16 ± 0.19 ×10^−3 min^−1. For the same compound, the T1/2 [4] was 43.30 ± 0.51 min, the K [5] was 61.94 ± 6.01 ×10^−2 min^−1 and the T1/2 [5] was 1.124 ± 0.109 min. The “First order rate constant” value ([6]; Buffer pH 5.0, 25° C.) was 4.06 ± 0.01 ×10^−3 h^−1, the “First order rate constant” value ([6]; Buffer pH 7.0, 25° C.) was 47.13 ± 1.16 ×10^−3 h^−1 and the “First order rate constant” value ([6]; Buffer pH 9.0, 25° C.) was 67.64 ± 7.67 ×10^−3 h^−1. The “First order rate constant” value ([6]; Water, 25° C.) was 23.70 ± 0.77 ×10^−3 h^−1, the “Aqueous Solubility” value ([7]; H20) was 0.05 µg/mL and the “Aqueous Solubility” value ([7]; pH 1.2) was 32.16 ± 0.27 µg/mL. For the same compound, the “Aqueous Solubility” value ([7]; pH 1.2, listed as THC-Valine) was 78.23 ± 0.66 µM, the “Aqueous Solubility” value ([7]; pH 2) was 53.66 ± 10.30 µg/mL and the “Aqueous Solubility” value ([7]; pH 2, listed as THC-Valine) was 147.35 ± 24.90 µM. The “Aqueous Solubility” value ([7]; pH 3) was 28.76 ± 0.14 µg/mL, the “Aqueous Solubility” value ([7]; pH 3, listed as THC-Valine) was 69.78 ± 0.33 µM and the “Aqueous Solubility” value ([7]; pH 4) was 10.34 ± 0.53 µg/mL. For the same compound, the “Aqueous Solubility” value ([7]; pH 4, listed as THC-Valine) was 24.10 ± 1.28 µM, the “Aqueous Solubility” value ([7]; pH 5) was 1.27 ± 0.25 µg/mL and the “Aqueous Solubility” value ([7]; pH 5, listed as THC-Valine) was 3.51 ± 0.62 µM. The “Aqueous Solubility” value ([7]; pH 6) was 0.07 ± 0.00 µg/mL and the “Aqueous Solubility” value ([7]; pH 6, listed as THC-Valine) was 0.17 ± 0.00 µM.
